Blank lines part the entries; values can stand above or below the compound they belong to. Activity calls are given as the source filed them. The calls are words filed in the database; no cut-off is given here.
Assays:
[1] = tested on: Protein cereblon/Androgen receptor (Homo sapiens), P10275+Q96SW2 [UNDEFINED MUTATION]; test: PROTAC activity at CRBN/AR-V7 in human 22Rv1 cells assessed as induction of AR degradation at 0.03 to 1 uM incubated for 24 hrs by Western blot analysis; type: cell-based; settings: dose 0.03-1 µM
Sequence of Protein cereblon/Androgen receptor (Homo sapiens), P10275+Q96SW2 [UNDEFINED MUTATION] (P10275 whole entry, looked up, stated change not applied): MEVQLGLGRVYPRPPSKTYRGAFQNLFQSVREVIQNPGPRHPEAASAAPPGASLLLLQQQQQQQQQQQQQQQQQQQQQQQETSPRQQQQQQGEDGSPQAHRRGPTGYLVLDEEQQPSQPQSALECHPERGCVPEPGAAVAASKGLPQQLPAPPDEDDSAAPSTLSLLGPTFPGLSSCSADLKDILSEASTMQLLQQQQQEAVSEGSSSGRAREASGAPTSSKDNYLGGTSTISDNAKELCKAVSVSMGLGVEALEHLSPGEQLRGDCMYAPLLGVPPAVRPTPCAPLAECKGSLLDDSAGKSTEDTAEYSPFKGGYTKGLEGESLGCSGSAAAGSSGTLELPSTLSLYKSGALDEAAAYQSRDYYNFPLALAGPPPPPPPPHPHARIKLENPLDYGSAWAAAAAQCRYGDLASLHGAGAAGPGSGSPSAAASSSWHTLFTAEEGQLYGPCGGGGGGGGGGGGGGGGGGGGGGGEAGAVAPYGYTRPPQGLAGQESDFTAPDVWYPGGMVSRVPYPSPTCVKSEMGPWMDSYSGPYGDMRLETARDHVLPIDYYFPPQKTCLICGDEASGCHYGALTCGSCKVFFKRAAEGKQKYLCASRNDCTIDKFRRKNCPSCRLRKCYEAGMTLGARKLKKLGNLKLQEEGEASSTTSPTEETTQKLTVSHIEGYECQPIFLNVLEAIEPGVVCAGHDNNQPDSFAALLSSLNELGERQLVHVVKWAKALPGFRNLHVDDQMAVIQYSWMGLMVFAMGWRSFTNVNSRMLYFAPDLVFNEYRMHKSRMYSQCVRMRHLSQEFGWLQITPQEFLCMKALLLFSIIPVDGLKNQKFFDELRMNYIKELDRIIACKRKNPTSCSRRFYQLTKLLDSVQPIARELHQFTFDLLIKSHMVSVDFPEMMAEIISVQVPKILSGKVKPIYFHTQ
Sequence of Protein cereblon/Androgen receptor (Homo sapiens), P10275+Q96SW2 [UNDEFINED MUTATION] (Q96SW2 whole entry, looked up, stated change not applied): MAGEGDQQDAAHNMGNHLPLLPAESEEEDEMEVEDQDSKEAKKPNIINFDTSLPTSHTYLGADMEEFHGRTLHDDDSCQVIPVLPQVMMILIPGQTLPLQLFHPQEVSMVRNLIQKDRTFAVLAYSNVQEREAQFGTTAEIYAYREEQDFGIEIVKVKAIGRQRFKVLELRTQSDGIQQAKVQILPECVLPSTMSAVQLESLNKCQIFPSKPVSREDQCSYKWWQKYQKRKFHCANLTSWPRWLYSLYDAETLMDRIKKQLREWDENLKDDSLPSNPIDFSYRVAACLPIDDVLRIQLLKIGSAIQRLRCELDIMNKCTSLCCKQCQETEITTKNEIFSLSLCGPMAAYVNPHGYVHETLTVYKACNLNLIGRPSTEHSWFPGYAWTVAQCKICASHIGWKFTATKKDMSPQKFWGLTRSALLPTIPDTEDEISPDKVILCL

PC-3 [2] = test: Cytotoxicity against human PC-3 cells assessed as cell death at high concentration incubated for 24 hrs; type: toxicity, cell-based; settings: pc-3, 24 h
CWR22R [3] = test: Cytotoxicity against human 22Rv1 cells assessed as cell death at high concentration incubated for 24 hrs; type: toxicity, cell-based
[4] = biological target: T1, Protein cereblon/Androgen receptor (Homo sapiens) (UniProt P10275+Q96SW2); test: PROTAC activity at CRBN/full-length AR in human […] cells assessed as induction of AR degradation at 0.03 to 1 uM incubated for 24 hrs by Western blot analysis; type: cell-based; settings: dose 0.03-1 µM
T1 sequence (P10275 whole entry, looked up): as the sequence (P10275 whole entry, looked up, stated change not applied) above
T1 sequence (Q96SW2 whole entry, looked up): as the sequence (Q96SW2 whole entry, looked up, stated change not applied) above

[5] = Cytotoxicity against human PC-3 cells assessed as inhibition of cell growth incubated for 6 days; type: toxicity, cell-based
[6] = biological target: T1, Protein cereblon/Androgen receptor (Homo sapiens); test: PROTAC activity at CRBN/full-length AR in human 22Rv1 cells assessed as induction of AR degradation at 0.03 to 1 uM incubated for 24 hrs by Western blot analysis; type: cell-based; settings: dose 0.03-1 µM
[7] = tested on: Protein cereblon/Androgen receptor (Homo sapiens), P10275+Q96SW2 [UNDEFINED MUTATION]; test: PROTAC activity at CRBN/AR-V7 in human […] cells assessed as induction of AR degradation at 0.03 to 1 uM incubated for 24 hrs by Western blot analysis; type: cell-based; settings: dose 0.03-1 µM
CWR22R [8] = test: Cytotoxicity against human 22Rv1 cells assessed as cell death at 5 uM; type: toxicity, cell-based
PC-3 [9] = test: Cytotoxicity against human PC-3 cells assessed as cell death at 5 uM; type: toxicity, cell-based; settings: pc-3, 5 µM
[10] = Cmax in ICR mouse at 10 mg/kg, po measured by LC-MS/MS analysis; type: ADME, organism-based; parameters: dose 10 mg/kg, route po; settings: in vivo
[11] = Clearance in ICR mouse at 2 mg/kg, iv measured by LC-MS/MS analysis; type: ADME, organism-based; settings: in vivo
[12] = Cmax in ICR mouse at 2 mg/kg, iv measured by LC-MS/MS analysis; type: ADME, organism-based; parameters: dose 2 mg/kg, route iv; settings: in vivo
[13] = Tmax in ICR mouse at 2 mg/kg, iv measured by LC-MS/MS analysis; type: ADME, organism-based; settings: in vivo
[14] = Half-life in ICR mouse at 2 mg/kg, iv measured by LC-MS/MS analysis; type: ADME, organism-based; settings: in vivo
[15] = Oral bioavailability in ICR mouse at 10 mg/kg measured by LC-MS/MS analysis; type: ADME, organism-based; settings: in vivo
[16] = Tmax in ICR mouse at 10 mg/kg, po measured by LC-MS/MS analysis; type: ADME, organism-based; settings: in vivo
[17] = AUC(0 to t) in ICR mouse at 2 mg/kg, iv measured by LC-MS/MS analysis; type: ADME, organism-based; parameters: dose 2 mg/kg, route iv; settings: in vivo
[18] = Half-life in ICR mouse at 10 mg/kg, po measured by LC-MS/MS analysis; type: ADME, organism-based; settings: in vivo
[19] = AUC(0 to t) in ICR mouse at 10 mg/kg, po measured by LC-MS/MS analysis; type: ADME, organism-based; parameters: dose 10 mg/kg, route po; settings: in vivo
LNCaP [20] = test: Antiproliferative activity against human LNCaP cells assessed as reduction in cell viability incubated for 6 days by CCK-8 assay; type: functional, cell-based; settings: 144 h
VCaP = test: Antiproliferative activity against human VCaP cells assessed as reduction in cell viability incubated for 6 days by CCK-8 assay; type: functional, cell-based; settings: 144 h
CWR22R [21] = test: Inhibition of colony formation in human 22Rv1 cells at 1 to 10 uM incubated for 2 weeks by crystal violet staining based analysis; type: functional, cell-based; settings: dose 1-10 µM
CWR22R [22] = test: Antiproliferative activity against enzalutamide-resistant human 22Rv1 cells assessed as reduction in cell viability incubated for 6 days by CCK-8 assay; type: functional, cell-based; settings: 22Rv1, 144 h
LNCaP [23] = test: Antitumor activity against human LNCaP cells xenografted in NOD SCID mouse assessed as tumor growth inhibition at 180 mg/kg, po administered daily for 4 weeks relative to control; type: functional; settings: 672 h, read-out: TGI
LNCaP [24] = test: Inhibition of colony formation in human LNCaP cells at 1 to 10 uM incubated for 2 weeks by crystal violet staining based analysis; type: functional, cell-based; settings: dose 1-10 µM
[25] = biological target: T2, von Hippel-Lindau disease tumor suppressor/Androgen receptor (Homo sapiens, UniProt P10275+P40337); test: PROTAC activity at VHL/AR-V7 in human 22Rv1 cells assessed as induction of AR degradation by Immunoblot analysis; type: cell-based
Target sequence in this assay (P10275 whole entry, looked up, change not shown): as the sequence (P10275 whole entry, looked up, stated change not applied) above
Target sequence in this assay (P40337 whole entry, looked up, change not shown): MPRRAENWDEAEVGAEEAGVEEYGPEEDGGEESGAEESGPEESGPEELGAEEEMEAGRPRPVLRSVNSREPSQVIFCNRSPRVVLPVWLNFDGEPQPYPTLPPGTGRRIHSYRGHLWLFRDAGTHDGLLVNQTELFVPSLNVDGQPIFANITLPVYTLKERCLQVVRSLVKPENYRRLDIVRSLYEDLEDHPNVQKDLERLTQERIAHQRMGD

[26] = biological target: T2, von Hippel-Lindau disease tumor suppressor/Androgen receptor; test: PROTAC activity at VHL/full-length AR in human LNCaP cells assessed as induction of AR degradation at 5 uM by Western blot analysis relative to control; type: cell-based
Target sequence in this assay (P10275 whole entry, looked up): as the sequence (P10275 whole entry, looked up, stated change not applied) above
Target sequence in this assay (P40337 whole entry, looked up): as the sequence (P40337 whole entry, looked up, change not shown) above

[27] = biological target: T2, von Hippel-Lindau disease tumor suppressor/Androgen receptor; test: PROTAC activity at VHL/full-length AR in human VCaP cells assessed as induction of AR degradation at 1 uM by Western blot analysis relative to control; type: cell-based
Target sequence in this assay (P10275 whole entry, looked up): as the sequence (P10275 whole entry, looked up, stated change not applied) above
Target sequence in this assay (P40337 whole entry, looked up): as the sequence (P40337 whole entry, looked up, change not shown) above

[28] = biological target: T2, von Hippel-Lindau disease tumor suppressor/Androgen receptor; test: PROTAC activity at VHL/full-length AR in human VCaP cells assessed as induction of AR degradation at 5 uM by Western blot analysis relative to control; type: cell-based
Target sequence in this assay (P10275 whole entry, looked up): as the sequence (P10275 whole entry, looked up, stated change not applied) above
Target sequence in this assay (P40337 whole entry, looked up): as the sequence (P40337 whole entry, looked up, change not shown) above

[29] = tested on: von Hippel-Lindau disease tumor suppressor/Androgen receptor (Homo sapiens), P10275+P40337 [UNDEFINED MUTATION]; test: PROTAC activity at VHL/AR-V7 in human VCaP cells assessed as induction of AR degradation at 1 uM by Western blot analysis relative to control; type: cell-based
Sequence of von Hippel-Lindau disease tumor suppressor/Androgen receptor (Homo sapiens), P10275+P40337 [UNDEFINED MUTATION] (P10275 whole entry, looked up, stated change not applied): as the sequence (P10275 whole entry, looked up, stated change not applied) above
Sequence of von Hippel-Lindau disease tumor suppressor/Androgen receptor (Homo sapiens), P10275+P40337 [UNDEFINED MUTATION] (P40337 whole entry, looked up, stated change not applied): as the sequence (P40337 whole entry, looked up, change not shown) above

[30] = biological target: T2, von Hippel-Lindau disease tumor suppressor/Androgen receptor; test: PROTAC activity at VHL/full-length AR in human LNCaP cells assessed as induction of AR degradation at 1 uM by Western blot analysis relative to control; type: cell-based
Target sequence in this assay (P10275 whole entry, looked up): as the sequence (P10275 whole entry, looked up, stated change not applied) above
Target sequence in this assay (P40337 whole entry, looked up): as the sequence (P40337 whole entry, looked up, change not shown) above

[31] = tested on: von Hippel-Lindau disease tumor suppressor/Androgen receptor (Homo sapiens), P10275+P40337 [UNDEFINED MUTATION]; test: PROTAC activity at VHL/AR-V7 in human VCaP cells assessed as induction of AR degradation at 5 uM by Western blot analysis relative to control; type: cell-based
LNCaP [32] = test: Antitumor activity against human LNCaP cells xenografted in NOD SCID mouse assessed as tumor growth inhibition at 10 mg/kg, po administered daily for 4 weeks relative to control; settings: 672 h, read-out: TGI
RWPE-1 = test: Cytotoxicity against human RWPE-1 cells assessed as reduction in cell viability incubated for 6 days by CCK8 assay; type: toxicity, cell-based; settings: rwpe-1, 144 h, time 6 day

Activity [1]: inactive
Activity [4]: inactive
Activity [6]: inactive
Activity [7]: inactive
Structure (SMILES): CC(C)(c1ccc(OCC2CCN(CC3CCN(CC4CCN(c5ccc6c(c5)C(=O)N(C5CCC(=O)NC5=O)C6=O)CC4)CC3)CC2)cc1)c1ccc(OC[C@H](O)CCl)cc1 (stereo not given in full)
Activity (PC-3 [2]): Toxic
Activity (CWR22R [3]): Toxic
IC50 at 6 days [5]: 1370 nM

Structure (SMILES): CC(C)(c1ccc(OCC2CCN(CC3CCN(C4CCN(c5cccc6c5C(=O)N(C5CCC(=O)NC5=O)C6=O)CC4)CC3)CC2)cc1)c1ccc(OC[C@H](O)CCl)cc1 (stereo not given in full)
Activity (CWR22R [8]): Toxic
Activity (PC-3 [9]): Toxic

Cmax [10]: 47 ng/mL
clearance [11]: 38.6 mL/min/kg
Cmax [12]: 662 ng/mL
Tmax [13]: 6 min
half-life [14]: 13.6 h
bioavailability [15]: 12.3%
Tmax [16]: 2 h
AUC(0-t) [17]: 645 ng·h/mL
half-life [18]: 20.5 h
AUC(0-t) [19]: 332 ng·h/mL
Structure (SMILES): CC(C)(c1ccc(OCC2CCN(CC3CN(C4CCN(c5cccc6c5C(=O)N(C5CCC(=O)NC5=O)C6=O)CC4)C3)CC2)cc1)c1ccc(OC[C@H](O)CCl)cc1 (stereo not given in full)

IC50 (LNCaP [20]): > 30000 nM
IC50 (VCaP): > 30000 nM
Structure (SMILES): CC(C)(c1ccc(OC[C@H](O)CO)cc1)c1ccc(OC[C@H](O)CCl)cc1
inhibition (CWR22R [21]): inactive
IC50 (CWR22R [22]): > 30000 nM
inhibition in vivo at 180 mg/kg (LNCaP [23]): 43%
inhibition (LNCaP [24]): inactive

EC50 [25]: 370 nM
Structure (SMILES): Cc1ncsc1-c1ccc([C@H](C)NC(=O)[C@@H]2C[C@@H](O)CN2C(=O)[C@@H](NC(=O)CCCCNC(=O)COc2c(-c3csc(N4CCOCC4)n3)ccc(F)c2F)C(C)(C)C)cc1

Cmax [10]: 130 ng/mL
clearance [11]: 111 mL/min/kg
Cmax [12]: 518 ng/mL
Tmax [13]: 6 min
half-life [14]: 0.5 h
bioavailability [15]: 7.8%
Tmax [16]: 0.2 h
AUC(0-t) [17]: 303 ng·h/mL
half-life [18]: 1.8 h
AUC(0-t) [19]: 113 ng·h/mL
Structure (SMILES): CC(C)(c1ccc(OCC2CCN(C(=O)CCCNc3ccc4c(c3)C(=O)N(C3CCC(=O)NC3=O)C4=O)CC2)cc1)c1ccc(OC[C@H](O)CCl)cc1 (stereo not given in full)

Activity [26]: 27.9%
Activity [27]: 18.4%
Activity [28]: 31%
Activity [29]: 45.9%
Activity [30]: 17.6%
Activity [31]: 63.3%
Structure (SMILES): Cc1ncsc1-c1ccc(CNC(=O)[C@@H]2C[C@@H](O)CN2C(=O)[C@@H](NC(=O)Cn2cc(CCCOc3ccc(C(C)(C)c4ccc(OC[C@H](O)CCl)cc4)cc3)nn2)C(C)(C)C)cc1

Activity [26]: 31.9%
Activity [27]: 48.9%
Activity [28]: 39.6%
Activity [29]: 38.1%
Activity [30]: 27.5%
Activity [31]: 48.2%
Structure (SMILES): Cc1ncsc1-c1ccc(CNC(=O)[C@@H]2C[C@@H](O)CN2C(=O)[C@@H](NC(=O)Cn2cc(CCCCCOc3ccc(C(C)(C)c4ccc(OC[C@H](O)CCl)cc4)cc3)nn2)C(C)(C)C)cc1

Structure (SMILES): CNC(=O)c1ccc(N2C(=S)N(c3ccc(C#N)c(C(F)(F)F)c3)C(=O)C2(C)C)cc1F [ENZALUTAMIDE]
inhibition in vivo at 10 mg/kg (LNCaP [32]): 72%
Activity (RWPE-1): Non-Toxic

Activity [26]: 36.6%
Activity [27]: 43.2%
Activity [28]: 53.5%
Activity [29]: 56.4%
Activity [30]: 22%
Activity [31]: 59.5%
Structure (SMILES): Cc1ncsc1-c1ccc(CNC(=O)[C@@H]2C[C@@H](O)CN2C(=O)[C@@H](NC(=O)Cn2cc(CCCCOc3ccc(C(C)(C)c4ccc(OC[C@H](O)CCl)cc4)cc3)nn2)C(C)(C)C)cc1

Activity [1]: inactive
Activity [4]: inactive
Activity [6]: inactive
Activity [7]: inactive
Structure (SMILES): CC(C)(c1ccc(OCC2CCN(CC3CCN(C4CCN(c5ccc6c(c5)C(=O)N(C5CCC(=O)NC5=O)C6=O)CC4)CC3)CC2)cc1)c1ccc(OC[C@H](O)CCl)cc1 (stereo not given in full)
Activity (PC-3 [2]): Toxic
Activity (CWR22R [3]): Toxic
IC50 at 6 days [5]: 1030 nM

Structure (SMILES): CC(C)(c1ccc(OCC2CCN(CC3CCN(CC4CCN(c5cccc6c5C(=O)N(C5CCC(=O)NC5=O)C6=O)CC4)CC3)CC2)cc1)c1ccc(OC[C@H](O)CCl)cc1 (stereo not given in full)
Activity (CWR22R [8]): Toxic
Activity (PC-3 [9]): Toxic

Source: ChEMBL document CHEMBL5325501, “Discovery of BWA-522, a First-in-Class and Orally Bioavailable PROTAC Degrader of the Androgen Receptor Targeting N-Terminal Domain for the Treatment of Prostate Cancer” (J Med Chem, 2023)
